In the supplement of paper PMC10307832:

Key:
Assay in all cases: relative viability (nuclei count vs DMSO), 5 days (fraction); higher = more cells survive
[1] = compound: COc1ncc(-c2ccc3nccc(-c4ccnnc4)c3c2)cc1NS(=O)(=O)c1ccc(F)cc1F [Omipalisib]
How it was run: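 Viability was defined as treated-well nuclei divided by vehicle-well nuclei, with the median taken over replicate plates. Cells from lung cancer lines sat overnight at 37 °C in 1536-well plates, received five √10-spaced library-drug doses by pinning on vehicle-anchored plates, and grew 5 days without medium change before one-step fixation, permeabilisation and Hoechst staining, 4× imaging and MetaXpress nuclear counts. Only plates with control CV under 25% and at least one doubling were kept.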

[2] = compound: COc1ncc(-c2ccc3nccc(-c4ccnnc4)c3c2)cc1NS(=O)(=O)c1ccc(F)cc1F [Omipalisib] + CC(=O)c1c(C)c2cnc(Nc3ccc(N4CCNCC4)cn3)nc2n(C2CCCC2)c1=O [Palbociclib] (partner 0.5 µM)
How it was run: (§1)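 Lung cancer cell lines, seeded in 1536-well plates, were treated the following day by pin tool with a single drug or with five library-drug doses (not always all listed) in √10 steps on top of a fixed anchor-drug dose. Cells were fixed and nuclei stained in one step after 5 days, and nuclei were counted. Relative viability is the nuclei count for treated wells divided by that for vehicle wells, reported as medians of duplicate plates.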

[3] = compound: COc1ncc(-c2ccc3nccc(-c4ccnnc4)c3c2)cc1NS(=O)(=O)c1ccc(F)cc1F [Omipalisib] + CS(=O)(=O)CCNCc1ccc(-c2ccc3ncnc(Nc4ccc(OCc5cccc(F)c5)c(Cl)c4)c3c2)o1 [Lapatinib] (partner 2 µM)
How it was run: as §1

[4] = compound: COc1ncc(-c2ccc3nccc(-c4ccnnc4)c3c2)cc1NS(=O)(=O)c1ccc(F)cc1F [Omipalisib] + CS(=O)(=O)N1CCN(Cc2cc3nc(-c4cccc5[nH]ncc45)nc(N4CCOCC4)c3s2)CC1 [Pictilisib] (partner 1 µM)
How it was run: as §1

[5] = compound: COc1ncc(-c2ccc3nccc(-c4ccnnc4)c3c2)cc1NS(=O)(=O)c1ccc(F)cc1F [Omipalisib] + Cc1cc(Nc2cc(N3CCN(C)CC3)nc(Sc3ccc(NC(=O)C4CC4)cc3)n2)n[nH]1 [Tozasertib] (partner 0.1 µM)
How it was run: as §1

[6] = compound: COc1ncc(-c2ccc3nccc(-c4ccnnc4)c3c2)cc1NS(=O)(=O)c1ccc(F)cc1F [Omipalisib] + Cc1nc(Nc2ncc(C(=O)Nc3c(C)cccc3Cl)s2)cc(N2CCN(CCO)CC2)n1 [Dasatinib] (partner 0.075 µM)
How it was run: as §1

Cell Line | relative viability ([1]; 0.0003 µM) | relative viability ([1]; 0.003 µM) | relative viability ([1]; 0.03 µM) | relative viability ([2]; first compound 0.0003 µM) | relative viability ([2]; first compound 0.003 µM) | relative viability ([2]; first compound 0.03 µM) | relative viability ([3]; first compound 0.0003 µM) | relative viability ([3]; first compound 0.003 µM) | relative viability ([3]; first compound 0.03 µM) | relative viability ([4]; first compound 0.0003 µM) | relative viability ([4]; first compound 0.003 µM) | relative viability ([4]; first compound 0.03 µM) | relative viability ([5]; first compound 0.0003 µM) | relative viability ([5]; first compound 0.003 µM) | relative viability ([5]; first compound 0.03 µM) | relative viability ([6]; first compound 0.0003 µM) | relative viability ([6]; first compound 0.003 µM) | relative viability ([6]; first compound 0.03 µM)
NCI-H647 | 0.949 | 0.696 | 0.42 | 0.263 | 0.21 | 0.179 | 0.932 | 0.782 | 0.272 | 0.462 | 0.307 | 0.386 | 0.33 | 0.158 | 0.0783 | 0.162 | 0.0952 | 0.0677
NCI-H650 | 0.876 | 0.745 | 0.51 | 0.297 | 0.275 | 0.222 | 0.816 | 0.759 | 0.499 | 0.867 | 0.762 | 0.631 | 0.665 | 0.608 | 0.396 | 0.469 | 0.317 | 0.266
NCI-H661 | 1 | 0.923 | 0.82 | 0.403 | 0.363 | 0.313 | 0.366 | 0.294 | 0.196 | 0.567 | 0.37 | 0.365 | 0.366 | 0.388 | 0.37 | 0.822 | 0.573 | 0.312
NCI-H727 | 1.05 | 0.68 | 0.544 | 0.644 | 0.487 | 0.552 | 0.723 | 0.776 | 0.674 | 0.321 | 0.361 | 0.231 | 0.666 | 0.623 | 0.378 | 0.353 | 0.327 | 0.366
NCI-H838 | 0.957 | 0.737 | 0.453 | 0.221 | 0.184 | 0.146 | 0.942 | 0.683 | 0.31 | 0.422 | 0.393 | 0.313 | 0.293 | 0.222 | 0.221 | 0.263 | 0.223 | 0.23
NCI-H1355 | 0.945 | 0.664 | 0.578 | 0.358 | 0.239 | 0.198 | 0.942 | 0.665 | 0.54 | 0.499 | 0.295 | 0.297 | 0.493 | 0.409 | 0.21 | 0.596 | 0.402 | 0.307
NCI-H1395 | 0.901 | 0.706 | 0.649 | 0.623 | 0.563 | 0.464 | 0.983 | 0.783 | 0.608 | 0.92 | 0.516 | 0.585 | 0.743 | 0.764 | 0.506 | 0.417 | 0.362 | 0.348
NCI-H1437 | 1 | 0.837 | 0.398 | 0.363 | 0.307 | 0.218 | 0.795 | 0.55 | 0.308 | 0.436 | 0.308 | 0.319 | 0.422 | 0.348 | 0.244 | 0.411 | 0.323 | 0.202
NCI-H1650 | 0.861 | 0.946 | 0.613 | 0.274 | 0.29 | 0.261 | 0.771 | 0.771 | 0.576 | 0.401 | 0.556 | 0.564 | 0.401 | 0.375 | 0.312 | 0.326 | 0.237 | 0.189
NCI-H1651 | 0.928 | 0.851 | 0.595 | 0.464 | 0.401 | 0.294 | 0.538 | 0.65 | 0.44 | 0.545 | 0.512 | 0.458 | 0.711 | 0.384 | 0.539 | 0.342 | 0.297 | 0.272
NCI-H1666 | 1.01 | 0.818 | 0.651 | 0.641 | 0.632 | 0.658 | 0.502 | 0.298 | 0.24 | 0.406 | 0.335 | 0.186 | 0.605 | 0.524 | 0.552 | 0.787 | 0.673 | 0.539
NCI-H1734 | 0.918 | 0.648 | 0.397 | 0.278 | 0.238 | 0.205 | 0.943 | 0.699 | 0.551 | 0.461 | 0.307 | 0.389 | 0.243 | 0.233 | 0.221 | 0.396 | 0.243 | 0.194
NCI-H1755 | 1.01 | 0.901 | 0.737 | 0.428 | 0.421 | 0.362 | 1.04 | 0.924 | 0.783 | 0.426 | 0.353 | 0.344 | 0.62 | 0.497 | 0.42 | 0.445 | 0.271 | 0.236
NCI-H1793 | 0.74 | 0.514 | 0.317 | 0.243 | 0.215 | 0.15 | 0.614 | 0.425 | 0.214 | 0.348 | 0.344 | 0.293 | 0.287 | 0.209 | 0.113 | 0.331 | 0.279 | 0.273
NCI-H1915 | 1.04 | 0.996 | 0.952 | 0.509 | 0.483 | 0.446 | 0.957 | 0.945 | 1 | 1.03 | 0.866 | 0.862 | 0.44 | 0.395 | 0.421 | 0.278 | 0.257 | 0.275
NCI-H1944 | 0.856 | 0.646 | 0.371 | 0.264 | 0.25 | 0.169 | 0.785 | 0.493 | 0.385 | 0.363 | 0.301 | 0.28 | 0.237 | 0.217 | 0.192 | 0.194 | 0.17 | 0.156
